The text below walks through data of US12552753B2, “Methods and compositions for targeting Tregs using CCR8 inhibitors” (Nanjing Immunophage Biomedical Co., Ltd., priority 2020, dated 2026).

Molecules are shown by their SMILES. Structures can show the parent of a compound that is named as a salt.

This test deals with CCR8 (Homo sapiens, UniProt P51685). The test can be described thus: Tango assay (Tango-CCR8-Gal4-CHO-K1 cells, CCL1-stimulated, ONE-Glo luminescence). Particulars: Tango Assay IC50, Inhibition of CCR8 Tango cell in vitro.
CCR8, sequence (P51685 whole entry, the tested form may be a part): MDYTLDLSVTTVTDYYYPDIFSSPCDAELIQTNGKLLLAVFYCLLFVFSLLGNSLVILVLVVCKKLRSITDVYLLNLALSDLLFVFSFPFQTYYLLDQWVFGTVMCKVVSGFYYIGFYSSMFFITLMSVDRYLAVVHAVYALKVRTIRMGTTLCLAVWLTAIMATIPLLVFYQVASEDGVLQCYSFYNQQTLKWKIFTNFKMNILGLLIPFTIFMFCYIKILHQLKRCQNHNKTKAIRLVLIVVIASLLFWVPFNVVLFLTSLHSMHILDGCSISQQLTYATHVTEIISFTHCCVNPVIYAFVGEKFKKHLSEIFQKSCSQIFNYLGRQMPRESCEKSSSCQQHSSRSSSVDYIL
Experimental: The Tango cell line was used to monitor antagonists-mediated receptor inactivation.
Tango cells (Tango-CCR8-Gal4-CHO-K1 cells constructed by Genomeditech) were passaged in complete medium (F12K, 10% FBS, 1% penicillin-streptomycin, 4 μg/ml puromycin, 4 μg/ml blasticidin and 100 μg/ml hygromycin) in incubator (37° C., 5% CO2).
Twenty-four hours before the seed, cells were cultured in 10 or 15 cm dish at a density of 30% confluence in culture medium (F12K, 10% FBS, 1% penicillin-streptomycin).
Cells were suspended in starving medium (F12K, 1% FBS, 1% penicillin-streptomycin) before being seeded into black/clear 96 wells (1×10^4 cells/70 μl/well) and incubated for 6 hours (37° C., 5% CO2). Different concentration of compound, dissolved in DMSO, was into the 96-well plates, with 50 μl in each well, and incubation continued for 1 hour at 37° C.
After the incubation, the medium was removed and the 96-well plate was put in −80° C. freezer for an hour or longer. The plate and the ONE-Glo reagent (Promega, Catalog Number: E6110) which was frozen in −80° C., were taken out and rewarmed to room temperature. The ONE-Glo working reagent was prepared by mixing ONE-Glo reagent with F12K (no FBS) (1:2), and 40 μl ONE-Glo working reagent was added into each well. After incubating for 10 minutes at room temperature, the plate was read using microplate luminescence reader at 560 nm.
The microplate reader records luminescence in relative luminescence units (RLU).
What is called IC50 is the midpoint of a concentration-inhibition curve. Read a low IC50 as greater potency. Compound `COc1cc(NC(=O)c2ccccc2C)c(C)cc1S(=O)(=O)N[C@H](C)C1CCN(C)CC1` [Compound 298, (R)-N-(5-methoxy-2-methyl-4-(N-(1-(1-methylpiperidin-4-yl)ethyl)sulfamoyl)phenyl)-2-methylbenzamide] came in with a 50% inhibitory concentration (IC50) of 17 nM.
`Cc1cc(S(=O)(=O)N[C@H](C)C2CCN(C)CC2)ccc1NC1(c2ccccc2)COC1` [Compound 299, (R)-3-methyl-N-(1-(1-methylpiperidin-4-yl)ethyl)-4-((3-phenyloxetan-3-yl)amino) benzene-sulfonamide] yielded an IC50 above 100000 nM.
Turning to `Cc1cc(S(=O)(=O)N[C@H](C)C2CCN(C)CC2)ccc1NC(c1ccccc1)C(F)(F)F` (stereo partly drawn) [Compound 300, 3-methyl-N-((R)-1-(1-methylpiperidin-4-yl)ethyl)-4-((2,2,2-trifluoro-1-phenylethyl)amino)benzene-sulfonamide], the midpoint of inhibition, the IC50, lay at 2300 nM.
To `Cc1cc(S(=O)(=O)N[C@H](C)C2CC[N+](C)(C)CC2)ccc1NC(=O)c1ccccc1C` [Compound 301, (R)-1,1-dimethyl-4-(1-((3-methyl-4-(2-methylbenzamido)phenyl)sulfonamido)ethyl)piperidin-1-ium.chloride.] belongs 102 nM; to `Cc1ccccc1C(=O)Nc1c(C)cc(S(=O)(=O)N[C@H](C)C2CCNCC2)cc1F` [Compound 302, (R)-N-(2-fluoro-6-methyl-4-(N-(1-(piperidin-4-yl)eth-yl)sulfamoyl)phen-yl)-2-methylbenzamide hydrochloride], above 100000 nM.
Compound `Cc1ccccc1C(=O)Nc1cc(C)c(S(=O)(=O)N[C@H](C)C2CCN(C)CC2)cc1F` [Compound 303, (R)-N-(2-fluoro-5-methyl-4-(N-(1-(1-methylpiperidin-4-yl)ethyl)sulfamoyl)phenyl)-2-methylbenzamide hydrochloride] came in with an IC50 of 9 nM.
`Cc1ccccc1C(=O)Nc1c(F)cc(S(=O)(=O)N[C@H](C)C2CCNCC2)cc1Cl` [Compound 304, (R)-N-(2-chloro-6-fluoro-4-(N-(1-(piperidin-4-yl)ethyl)sulfamoyl)phenyl)-2-methylbenzamide hydrochloride]: half-maximal inhibition (IC50) required 3 nM.
To `Cc1ccccc1C(=O)Nc1c(Cl)cc(S(=O)(=O)N[C@H](C)C2CCNCC2)cc1Cl` [Compound 305, (R)-N-(2,6-dichloro-4-(N-(1-(piperidin-4-yl)ethyl)sulfamoyl)phenyl)-2-methylbenzamide hydrochloride] belongs 1.5 nM.
On to `Cc1ccccc1C(=O)Nc1cc(Cl)c(S(=O)(=O)N[C@H](C)C2CCN(C)CC2)cc1Cl` [Compound 306, (R)-N-(2,5-dichloro-4-(N-(1-(1-methylpiperidin-4-yl)ethyl)sulfamoyl)phenyl)-2-methylbenzamide hydrochloride], for which 6 nM corresponded to half-maximal inhibition (IC50).
The compound `Cc1ccccc1C(=O)Nc1cc(Cl)c(S(=O)(=O)N[C@@H](C)C2CCN(C)CC2)cc1Cl` [Compound 307, (S)-N-(2,5-dichloro-4-(N-(1-(1-methylpiperidin-4-yl)ethyl)sulfamoyl)phenyl)-2-methylbenzamide hydrochloride] displayed an IC50 above 100000 nM.
In the case of `Cc1ccccc1C(=O)Nc1ccc(S(=O)(=O)N[C@H](C)C2CCN(C)CC2)c(C)c1Cl` [Compound 308, (R)-N-(2-chloro-3-methyl-4-(N-(1-(1-methylpiperidin-4-yl)ethyl)sulfamoyl)phenyl)-2-methylbenzamide], the IC50 was above 100000 nM.
`Cc1cc(S(=O)(=O)N[C@H](C)C2CCNCC2)ccc1NC(=O)C12CCC(CC1)CC2` [Compound 309, hydrochloride]: the IC50 is 10 nM.
Compound `Cc1cc(S(=O)(=O)N[C@H](C)C2CCNCC2)ccc1NC(=O)c1cccc2c1CCC2` [Compound 310, (R)-N-(2-methyl-4-(N-(1-(piperidin-4-yl)ethyl)sulfamoyl)phenyl)-2,3-dihydro-1H-indene-4-carboxamide hydrochloride] registered an IC50 of 5 nM.
To `Cc1ccccc1C(=O)Nc1cc(F)c(S(=O)(=O)NC2CCNCC2)cc1Cl` [Compound 311, N-(2-chloro-5-fluoro-4-(N-(piperidin-4-yl)sulfamoyl)phenyl)-2-methylbenzamide hydrochloride] belongs above 100000 nM.
Regarding `CC(=O)N1CCC(NS(=O)(=O)c2cc(Cl)c(NC(=O)c3ccccc3C)cc2F)CC1` [Compound 312, N-(4-(N-(1-acetylpiperidin-4-yl)sulfamoyl)-2-chloro-5-fluorophenyl)-2-methylbenzamide], the IC50 came to 301 nM.
Take `Cc1cc(S(=O)(=O)N[C@H](C)C2CCNCC2)ccc1NC1(c2ccccc2)COC1` [Compound 313, (R)-3-methyl-4-((3-phenyloxetan-3-yl)amino)-N-(1-(piperidin-4-yl)ethyl)benzene-sulfonamide]: inhibition was half-maximal at 224 nM (IC50).
The same measure for `COc1cc(NC(=O)c2ccccc2C)c(C)cc1S(=O)(=O)N[C@H](C)C1CCNCC1` [Compound 314, (R)-N-(5-methoxy-2-methyl-4-(N-(1-(piperidin-4-yl)ethyl)sulfamoyl)phen-yl)-2-methylbenzamide hydrochloride]: 17 nM.
